Where two headings read alike, the source gives them in different places. Some results are limits rather than exact numbers.

Data set [1] concerns A549 cells. In words: MTT cell viability assay (photocytotoxicity), A549. It is filed as cell-based, human. The note with it: for PI (Phototoxic Index) A549: ratio between IC50 in the dark and visible light exposure. In general terms: Tetrazolium dyes change colour on reduction, which living cells bring about.
Description: (§1) The photocytotoxicity of the complexes was assessed using MTT assay based on the ability of mitochondrial dehydrogenases in the viable cells to cleave the tetrazolium rings of MTT and forming dark blue membrane impermeable crystals of formazan that were measured at 570 nm giving an estimate of the number of viable cells.[40] Approximately, 1 × 10^4 cells of HeLa and A549 were plated in a 96-well culture plate in DMEM supplemented with 10% fetal bovine serum and cultured overnight. Different concentrations of the complexes were added to the cells, and incubation was continued for 4 h in dark. After incubation, the medium was replaced with 50 mM phosphate buffer, pH 7.4, containing 150 mM NaCl (PBS) and photo-irradiation was done for 1 h in visible light of 400–700 nm using Luzchem Photoreactor (Model LZC-1, Ontario, Canada; light fluence rate: 2.4 mW cm^−2; light dose = 10 J cm^−2). PBS was replaced with 10% DMEM after irradiation. Incubation was continued for a further period of 19 h in dark for light exposed cells and for 20 h in dark for light unexposed cells followed by addition of 25 μL of 4 mg mL^−1 of MTT to each well and incubated for an additional 3 h. The culture medium was discarded, and a 100 μL volume of DMSO was added to dissolve the formazan crystals. The absorbance at 570 nm was determined using an ELISA microplate reader (BioRad, Hercules, CA, USA). The cytotoxicity of the test compounds was measured as the percentage ratio of the absorbance of the treated cells over the untreated controls. The IC50 values were determined by nonlinear regression analysis (Graphpad Prism, version 7).
In data set [2] the test system is HeLa cells. The data set is described as follows: MTT cell viability assay (photocytotoxicity), HeLa. The class given is cell-based, human. The settings on record: for PI (Phototoxic Index) HeLa: ratio between IC50 in the dark and visible light exposure.
Description: as §1
The nature of data set [3]: Partition coefficient n-octanol/water, modified shake-flask method. The class given is physicochemical. The settings on record: average of three concentrations. The method, then:
A modified shake-flask method was used to determine the partition coefficients of the complexes 1–6 between n-octanol and water.[41] Briefly, 5 ml solution of a complex in octanol-saturated water was shaken with 5 ml of water-saturated n-octanol in a falcon tube for ∼30 min using a vortex. The biphasic mixture was centrifuged for ∼5 min at 4000 rpm and the layers were separated. The concentration of the complexes 1–6 in each layer was measured by UV-visible spectroscopy. The partition coefficients of 1–6 were determined at three different concentrations and averaged out.

In data set [4] the target is T1, human serum albumin (HSA) (Homo sapiens, UniProt P02768).
T1 construct: purchased Sigma (U.S.A.)
T1 sequence (P02768 25-609): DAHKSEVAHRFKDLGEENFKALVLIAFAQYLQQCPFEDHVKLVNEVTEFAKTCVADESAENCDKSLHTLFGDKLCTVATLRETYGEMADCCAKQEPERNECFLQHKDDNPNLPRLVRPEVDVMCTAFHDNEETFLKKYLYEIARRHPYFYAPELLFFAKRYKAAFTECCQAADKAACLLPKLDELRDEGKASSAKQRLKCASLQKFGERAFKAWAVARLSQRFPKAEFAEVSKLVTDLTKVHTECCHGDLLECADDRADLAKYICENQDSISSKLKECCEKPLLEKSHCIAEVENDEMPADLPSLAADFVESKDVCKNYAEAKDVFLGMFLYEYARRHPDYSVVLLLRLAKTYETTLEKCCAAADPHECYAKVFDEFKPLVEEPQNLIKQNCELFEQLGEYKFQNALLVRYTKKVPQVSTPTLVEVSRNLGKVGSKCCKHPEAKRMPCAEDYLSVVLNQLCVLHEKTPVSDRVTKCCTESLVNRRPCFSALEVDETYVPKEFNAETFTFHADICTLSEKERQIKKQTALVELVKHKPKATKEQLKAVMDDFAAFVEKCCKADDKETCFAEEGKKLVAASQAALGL
The data set is described as follows: Protein binding by tryptophan fluorescence quenching. The settings on record: fluorescence lifetime of HSA with 10 and 20 μM complex. The method, then:
The protein binding study was carried out by tryptophan fluorescence quenching experiments using human serum albumin (HSA, 2 μM) in Tris–HCl buffer (pH 7.2). Quenching of the emission intensity of tryptophan residue (Trp 214) of HSA at 320 nm (excitation wavelength at 280 nm) was monitored using complexes 1–6 as quenchers with increasing concentration.[38]I0/I vs. [complex] plots were constructed. Linear fit of the data using the equation I0/I = 1 + K[Q], where I0 and I are the emission intensity of HSA in the absence of quencher and emission intensity of HSA in the presence of the quencher of concentration [Q] gave the binding constant KHSA values using OriginPro 8. […] Average fluorescence lifetime of pure HSA (2 μM) was measured and compared with its fluorescence lifetime in presence of two different concentrations (10 and 20 μM) of complex 3 using a time-resolved fluorimeter.[39]

Data set [5] relates to HeLa cells. In words: Annexin-V/FITC/PI assay by flow cytometry. The class given is cell-based, human. The note with it: 5 μM. As for the experimental part: The mechanism of light-assisted cell death induced by the complexes was studied by annexin-V/FITC/PI assay using complexes 1 and 3 in 1% DMSO/DMEM.[44] ∼4 × 10^5 HeLa cells seeded in six-well plates were cultured for 24 h. The cells were then incubated with 3 (5 μM) for 4 h in the dark and then exposed to visible light (λ = 400–700 nm, light dose = 10 J cm^−2) in phenol red free media for 1 h. The corresponding dark control experiment was carried out. Cells were incubated for another 19 h and 20 h respectively for the light exposed and unexposed plates in DMEM/10% fetal bovine serum (FBS) buffer in the dark. The medium was discarded, cells were trypsinized and re-suspended in 140 μL Annexin V binding buffer (100 mM HEPES/NaOH, pH 7.4 containing 140 mM NaCl and 2.5 mM CaCl2). Annexin-V/FITC ([…]) and propidium iodide (PI; […]) were added to the cell suspensions, incubated for 5 min and readings were taken using a flow cytometer.
(In general: Flow cytometry measures light scatter and fluorescence of single cells or particles in a stream.)

The test system of data set [6] is HeLa cells. The data set is described as follows: DCFDA assay for detection of ROS. The class given is cell-based, human. The note with it: 5 μM. As for the experimental part:
The generation of cellular reactive oxygen species (ROS) was assessed using DCFDA assay.[43] Approximately ∼1 × 10^6 HeLa cells were incubated with complex 3 (5 μM) for 4 h which is followed by photo-irradiation (400–700 nm) for 1 h in PBS. The cells were then harvested by trypsinization and a single cell suspension in PBS was made. After that the cells were treated with DCFDA solution (10 μM, in DMSO) in dark at room temperature for 5 min. The distribution of DCFDA stained HeLa cells was determined by flow cytometry in the FL-1 channel.

Data set [7] deals with HeLa cells. The data set is described as follows: Cellular uptake by flow cytometry. The class given is cell-based, human. The note with it: 10 μM, 4 h in dark, fluorescence vs cells' auto fluorescence. The method, then: Uptake of the complexes 1–3 in HeLa cells were studied by flow cytometric method reported in literature.[42] HeLa cells were treated with 1–3 (10 μM) and incubated for 4 h in dark. The cells were harvested by trypsinization and a suspension in PBS was prepared. The uptake of the green fluorescent complexes in HeLa cells were evaluated by flow cytometry.

Data set [8] has as its system HeLa cells. The note with it: curcumin, cited from earlier work.
Data set [9] concerns A549 cells. The settings on record: curcumin, cited from earlier work.
Where [10] appears, read: 4 h treatment followed by 20 h incubation in dark, read-out: IC50 A549 Dark.
Setting [11] is: 4 h treatment in dark, visible light (400–700 nm, 10 J cm^−2) 1 h, then 19 h in dark, read-out: IC50 A549 Light.
Setting [12] is: 4 h treatment followed by 20 h incubation in dark, read-out: IC50 HeLa Dark.
[13] abbreviates: 4 h treatment in dark, visible light (400–700 nm, 10 J cm^−2) 1 h, then 19 h in dark, read-out: IC50 HeLa Light.
The mark [14] stands for this setting: visible light (400–700 nm, 10 J cm^−2).

`COc1cc(C=CC(=O)C=C([O-])C=Cc2ccc(O)c(OC)c2)ccc1O.[Cu+2].[O-][Cl+3]([O-])([O-])[O-].c1cnc2c(c1)c1nccnc1c1cccnc12` [Complex 2, [Cu(Cur)(dpq)(ClO4)]]: the half-maximal inhibitory concentration (IC50) stood at 65.6 ± 4.4 µM in the data set with A549 cells [1] (setting [10]), 5.7 ± 0.7 µM in the data set with A549 cells [1] (setting [11]), 61.9 ± 3.9 µM in the data set with HeLa cells [2] (setting [12]) and 4.7 ± 0.8 µM with HeLa cells [2] (setting [13]). Moreover, the “PI (Phototoxic Index) A549” value in the data set with A549 cells [1] was 11.5. For the same molecule, the “PI (Phototoxic Index) HeLa” value in the data set on HeLa cells [2] stood at 13.2. Moreover, in data set [3], the “log Po/w” value was determined as 0.345.
In the case of `COc1cc(/C=C/C(=O)C=C([O-])/C=C/c2ccc(O)c(OC)c2)ccc1O.[Cu+2].[O-][Cl+3]([O-])([O-])[O-].c1ccc2nc3c4cccnc4c4ncccc4c3nc2c1` [Complex 3, [Cu(Cur)(dppz)(ClO4)]], the half-maximal inhibitory concentration (IC50) in the data set with A549 cells [1] (setting [10]) came to 64.9 ± 4.3 µM; in the data set on A549 cells [1] (setting [11]), 4.3 ± 0.4 µM; in the data set on HeLa cells [2] (setting [12]), 58.9 ± 3.7 µM; in the data set with HeLa cells [2] (setting [13]), 3.7 ± 0.5 µM. Also, in the data set with A549 cells [1], the “PI (Phototoxic Index) A549” value was found to be 15.1. Moreover, the “HSA fluorescence quenching mechanism” value in data set [4] is “static in nature”. The “population of cells in early apoptotic stage” value in the data set on HeLa cells [5] (in dark) was roughly 4%; in the data set with HeLa cells [5] (setting [14]), roughly 50%. Besides, the entries for the “population of cells in late apoptotic stage” value in the data set on HeLa cells [5] (in dark) and in the data set on HeLa cells [5] (setting [14]) were roughly 8% and roughly 15%, respectively. Moreover, the “PI (Phototoxic Index) HeLa” value in the data set with HeLa cells [2] was 15.9. For the same molecule, the “ROS generation (DCF emission)” value in the data set on HeLa cells [6] (4 h, photo-irradiation (400–700 nm) 1 h) is listed as “significant increase in emission by DCF”; with HeLa cells [6] (compound treated cells kept in dark), “did not show any significant ROS formation”. The “uptake in HeLa cells” value in the data set with HeLa cells [7] is recorded as “highest uptake”. Further, the “log Po/w” value in data set [3] was 0.945.
Regarding `CC(=O)C=C(C)[O-].[Cu+2].[O-][Cl+3]([O-])([O-])[O-].c1ccc2nc3c4cccnc4c4ncccc4c3nc2c1` [Complex 6], the IC50 with A549 cells [1] (setting [10]) is greater than 100 µM; with A549 cells [1] (setting [11]) it was 39.8 ± 3.3 µM; with HeLa cells [2] (setting [12]), greater than 100 µM; with HeLa cells [2] (setting [13]), 36.9 ± 2.8 µM. The “PI (Phototoxic Index) A549” value in the data set with A549 cells [1] is given as greater than 2.5. The “PI (Phototoxic Index) HeLa” value in the data set with HeLa cells [2] was greater than 2.7.
Regarding `CC(=O)C=C(C)[O-].[Cu+2].[O-][Cl+3]([O-])([O-])[O-].c1cnc2c(c1)c1nccnc1c1cccnc12` [Complex 5, [Cu(acac)(dpq)(ClO4)]], the concentration for half-maximal inhibition (IC50) was greater than 100 µM in the data set on A549 cells [1] (setting [10]), 45.1 ± 3.5 µM in the data set on A549 cells [1] (setting [11]), greater than 100 µM in the data set on HeLa cells [2] (setting [12]) and 46.8 ± 3.9 µM in the data set on HeLa cells [2] (setting [13]). In the data set on A549 cells [1], the “PI (Phototoxic Index) A549” value is on record as greater than 2.2. Further, the “PI (Phototoxic Index) HeLa” value in the data set with HeLa cells [2] is listed as greater than 2.1. Further, the “log Po/w” value in [3] is reported as −0.180.
Turning to `COc1cc(/C=C/C(=O)C=C([O-])/C=C/c2ccc(O)c(OC)c2)ccc1O.[Cu+2].[O-][Cl+3]([O-])([O-])[O-].c1cnc2c(c1)ccc1cccnc12` [Complex 1, [Cu(Cur)(phen)(ClO4)]], the 50% inhibitory concentration (IC50) in the data set on A549 cells [1] (setting [10]) is 85.3 ± 5.4 µM; in the data set with A549 cells [1] (setting [11]) it was 8.6 ± 0.8 µM; with HeLa cells [2] (setting [12]) it was 56.4 ± 3.5 µM; in the data set on HeLa cells [2] (setting [13]) it was 6.8 ± 0.9 µM. Besides, in the data set on A549 cells [1], the “PI (Phototoxic Index) A549” value is recorded as 9.9. Further, the “induction of apoptosis (in words)” value in the data set on HeLa cells [5] (visible light (400–700 nm, 10 J cm^−2) vs dark) is reported as “visible light assisted induction of apoptosis in HeLa cells, however not up to the extent of 3”. In addition, in the data set with HeLa cells [2], the “PI (Phototoxic Index) HeLa” value stood at 8.3. Also, the “log Po/w” value in [3] is reported as −0.525.
In the case of `CC(=O)C=C(C)[O-].[Cu+2].[O-][Cl+3]([O-])([O-])[O-].c1cnc2c(c1)ccc1cccnc12` [Complex 4, [Cu(acac)(phen)(ClO4)]], the IC50 is greater than 100 µM in the data set with A549 cells [1] (setting [10]), 48.8 ± 4.2 µM in the data set on A549 cells [1] (setting [11]), greater than 100 µM in the data set on HeLa cells [2] (setting [12]) and 41 ± 3.8 µM with HeLa cells [2] (setting [13]).
Take `COc1cc(/C=C/C(=O)CC(=O)/C=C/c2ccc(O)c(OC)c2)ccc1O` [Curcumin, (1E,6E)-1,7-bis(4-hydroxy-3-methoxyphenyl)-1,6-heptadiene-3,5-dione]: the 50% inhibitory concentration (IC50) is 85.4 ± 0.6 µM in the data set on HeLa cells [8] (read-out: IC50 HeLa Dark), 8.2 ± 0.2 µM with HeLa cells [8] (read-out: IC50 HeLa Light), 61.4 ± 0.4 µM with A549 cells [9] (read-out: IC50 A549 Dark) and 19 ± 0.1 µM with A549 cells [9] (read-out: IC50 A549 Light).

The term IC50 denotes the concentration that inhibits the measured activity by half.

(Values after publication PMC9606729 (RSC Advances, 2022).)
